Results as given in article PMC5805504 (Oncotarget, 2017).
“And” between values parts separate entries of the source, which are not always exact repeats. Equal values may be shown once. Read-outs that look alike come from different tables or passages of the source.

Experiments:
TGFβRII = TGFβRII (Homo sapiens, UniProt P37173); assay: Autophosphorylation kinase assay
[1] = design: method as in earlier work; details: patients with pancreas cancer; cited from earlier work
[2] = system: pSMAD in Calu6 and EMT6-LM2 tumors; assay: PK/PD profile from Calu6 and EMT6-LM2 in vivo target inhibition studies (statements not split by model); design: species or system mice
pSMAD in NIH3T3 cells = assay: pSMAD inhibition in NIH3T3 cells; assay type: cell-based; details: Mus musculus, read-out: IC50, inhibition of pSMAD, data not shown
[3] = system: pSMAD in 13762 rat mammary carcinoma tumor; assay: 13762 rat tumor model, pSMAD in tumor tissue; assay type: in vivo, Fischer 344 rats; details: Table 4, read-out: IC50 of pSMAD (%CV)
Protocol: (§1) Fischer 344 rats from Taconic Farms weighing 150 to 160 grams were acclimatized for 1 week prior to study initiation and had ad libitum access to food. Rats were shaved in the implant area then given a subcutaneous flank injection of 5 × 10^6 13762 rat mammary carcinoma cells in a 1:1 (v/v) mixture with Matrigel in media. […] Tumor, PBMCs, and plasma were collected at 0.5, 1, 1.5, 2, 4, 8, 16, and 24 hours for further analysis.
For correlation of pSMAD modulation in 13762 rat mammary carcinoma tumors and PBMCs, data were normalized using an analysis of co-variance of log pSMAD versus log tSMAD and treatment group. The slope (b) from this analysis was used to normalize the pSMAD values using pSMAD/(tSMAD)^b. Percent inhibition was calculated by the following formula: 100-(y/x)*100 where y = normalized pSMAD value and x = mean normalized pSMAD in the vehicle control. Linear correlation was used to compare tumor and PBMC measurements. In addition, using a cutoff of 50%, a 2 × 2 contingency table analysis was performed using Fisher's exact test.

[4] = rats; cited from earlier work
[5] = system: TGFβ ligand (SMAD2/3-responsive promoter); assay: Cell based luciferase reporter assay (SMAD2/3), TGFβ-stimulated HEK293_SMAD2/3 cells; details: Homo sapiens; TGFβ1 2 nM stimulated HEK293_SMAD2/3
Alk6/BMPR1 = target: T1, Alk6/BMPR1 (Homo sapiens, UniProt O00238); assay: KINOMEscan kinase competition binding assay (DiscoverX); details: absence of ATP, three-point titration
T1 construct: purchased DiscoverX
T1 sequence (O00238 14-502): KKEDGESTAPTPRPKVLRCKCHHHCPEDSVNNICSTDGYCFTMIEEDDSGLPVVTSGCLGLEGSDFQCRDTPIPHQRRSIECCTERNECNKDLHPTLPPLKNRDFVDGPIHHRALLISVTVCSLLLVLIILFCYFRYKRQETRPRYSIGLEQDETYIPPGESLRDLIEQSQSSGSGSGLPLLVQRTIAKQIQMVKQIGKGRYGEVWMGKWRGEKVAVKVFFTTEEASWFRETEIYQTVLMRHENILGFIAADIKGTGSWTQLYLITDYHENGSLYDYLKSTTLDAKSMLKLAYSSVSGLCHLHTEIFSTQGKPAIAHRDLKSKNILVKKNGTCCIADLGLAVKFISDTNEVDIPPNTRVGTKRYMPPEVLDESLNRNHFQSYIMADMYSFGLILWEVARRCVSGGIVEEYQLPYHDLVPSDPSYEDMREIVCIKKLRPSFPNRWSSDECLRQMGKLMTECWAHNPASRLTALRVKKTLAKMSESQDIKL
Text: (§2) Data are presented as Geomean ± SD.

Braf = target: T2, Braf (Homo sapiens, UniProt P15056); assay: as above; details: absence of ATP, three-point titration
T2 construct: purchased DiscoverX
Text: as §2

NLK = target: T3, NLK (Homo sapiens, UniProt Q9UBE8); assay: as above; details: absence of ATP, three-point titration
T3 construct: purchased DiscoverX
T3 sequence (Q9UBE8 whole entry): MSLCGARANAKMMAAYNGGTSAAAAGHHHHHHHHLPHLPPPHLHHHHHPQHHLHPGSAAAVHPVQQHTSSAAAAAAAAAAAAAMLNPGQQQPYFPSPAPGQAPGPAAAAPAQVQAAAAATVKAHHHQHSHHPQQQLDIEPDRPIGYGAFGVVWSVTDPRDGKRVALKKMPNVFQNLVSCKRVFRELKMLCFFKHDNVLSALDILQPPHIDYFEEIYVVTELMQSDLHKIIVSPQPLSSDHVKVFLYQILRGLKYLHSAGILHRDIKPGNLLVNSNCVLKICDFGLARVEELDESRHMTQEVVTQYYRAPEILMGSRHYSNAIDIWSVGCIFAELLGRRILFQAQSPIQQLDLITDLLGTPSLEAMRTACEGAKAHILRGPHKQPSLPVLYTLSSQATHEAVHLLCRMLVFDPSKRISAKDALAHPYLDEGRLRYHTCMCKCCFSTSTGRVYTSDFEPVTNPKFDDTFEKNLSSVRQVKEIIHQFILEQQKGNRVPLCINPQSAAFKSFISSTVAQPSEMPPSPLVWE
Text: as §2

Alk2/ACVR1 = target: T4, Alk2/ACVR1 (Homo sapiens, UniProt Q04771); assay: as above; details: absence of ATP, three-point titration
T4 construct: purchased DiscoverX
T4 sequence (Q04771 21-509): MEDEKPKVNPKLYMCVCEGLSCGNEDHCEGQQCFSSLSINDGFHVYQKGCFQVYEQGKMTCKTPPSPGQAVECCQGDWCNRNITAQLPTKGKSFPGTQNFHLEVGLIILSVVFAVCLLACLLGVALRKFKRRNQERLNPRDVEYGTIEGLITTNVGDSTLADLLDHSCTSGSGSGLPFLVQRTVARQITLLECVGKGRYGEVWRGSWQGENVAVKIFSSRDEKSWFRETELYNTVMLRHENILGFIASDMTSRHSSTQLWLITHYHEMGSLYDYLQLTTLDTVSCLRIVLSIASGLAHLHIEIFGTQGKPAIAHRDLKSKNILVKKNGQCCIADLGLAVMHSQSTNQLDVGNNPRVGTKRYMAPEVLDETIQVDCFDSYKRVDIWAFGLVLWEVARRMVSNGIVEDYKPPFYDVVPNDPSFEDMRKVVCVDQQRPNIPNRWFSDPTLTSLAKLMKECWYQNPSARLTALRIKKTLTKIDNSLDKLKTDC
Text: as §2

ACVR2B = target: T5, ACVR2B (Homo sapiens, UniProt Q13705); assay: as above; details: absence of ATP, three-point titration
T5 construct: purchased DiscoverX
T5 sequence (Q13705 19-512): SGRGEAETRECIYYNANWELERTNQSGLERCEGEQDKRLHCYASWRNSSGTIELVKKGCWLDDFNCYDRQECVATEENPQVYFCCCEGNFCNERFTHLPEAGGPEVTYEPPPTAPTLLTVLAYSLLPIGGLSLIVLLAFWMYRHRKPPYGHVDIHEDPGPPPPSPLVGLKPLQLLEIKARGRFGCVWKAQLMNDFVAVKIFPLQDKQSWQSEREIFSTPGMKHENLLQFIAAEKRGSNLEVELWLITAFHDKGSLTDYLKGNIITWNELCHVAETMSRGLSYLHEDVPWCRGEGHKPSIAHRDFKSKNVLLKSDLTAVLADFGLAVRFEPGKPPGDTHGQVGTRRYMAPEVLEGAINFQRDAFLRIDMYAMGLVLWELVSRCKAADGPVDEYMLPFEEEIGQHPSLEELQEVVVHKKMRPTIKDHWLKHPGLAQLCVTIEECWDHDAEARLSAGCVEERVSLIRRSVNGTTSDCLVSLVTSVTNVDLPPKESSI
Text: as §2

TGFβR2 = target: T6, TGFβR2 (Homo sapiens, UniProt P37173); assay: as above; details: absence of ATP, three-point titration
T6 construct: purchased DiscoverX
T6 sequence (P37173 23-567): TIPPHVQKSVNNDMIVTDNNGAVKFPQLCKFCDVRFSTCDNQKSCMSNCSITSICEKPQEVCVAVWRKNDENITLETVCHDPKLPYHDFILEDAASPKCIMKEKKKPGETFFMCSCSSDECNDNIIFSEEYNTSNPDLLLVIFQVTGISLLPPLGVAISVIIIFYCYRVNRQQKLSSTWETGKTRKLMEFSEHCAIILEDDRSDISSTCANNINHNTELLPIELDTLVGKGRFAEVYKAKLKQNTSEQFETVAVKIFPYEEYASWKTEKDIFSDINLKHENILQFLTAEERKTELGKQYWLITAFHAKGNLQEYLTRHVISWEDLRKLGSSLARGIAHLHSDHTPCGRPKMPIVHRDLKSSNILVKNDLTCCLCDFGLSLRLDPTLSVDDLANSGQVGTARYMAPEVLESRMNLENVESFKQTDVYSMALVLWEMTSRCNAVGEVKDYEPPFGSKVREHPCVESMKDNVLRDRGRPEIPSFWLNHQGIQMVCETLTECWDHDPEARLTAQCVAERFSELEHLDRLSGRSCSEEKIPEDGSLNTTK
Text: as §2

ZAK = target: T7, ZAK (Homo sapiens, UniProt Q9NYL2); assay: as above; details: absence of ATP, three-point titration
T7 construct: purchased DiscoverX
Text: as §2

Abl1 = target: T8, Abl1 (Homo sapiens, UniProt P00519); assay: as above; details: absence of ATP, three-point titration
T8 construct: purchased DiscoverX
Text: as §2

MINK = target: T9, MINK (Homo sapiens, UniProt Q8N4C8); assay: as above; details: absence of ATP, three-point titration
T9 construct: purchased DiscoverX
Text: as §2

GAK = target: T10, GAK (Homo sapiens, UniProt O14976); assay: as above; details: absence of ATP, three-point titration
T10 construct: purchased DiscoverX
Text: as §2

ACVR2A = target: T11, ACVR2A (Homo sapiens, UniProt P27037); assay: as above; details: absence of ATP, three-point titration
T11 construct: purchased DiscoverX
Text: as §2

RSK4 = RSK4 (Homo sapiens, UniProt Q9UK32); assay: as above; details: absence of ATP, three-point titration
Chain of RSK4 (Q9UK32 73-330): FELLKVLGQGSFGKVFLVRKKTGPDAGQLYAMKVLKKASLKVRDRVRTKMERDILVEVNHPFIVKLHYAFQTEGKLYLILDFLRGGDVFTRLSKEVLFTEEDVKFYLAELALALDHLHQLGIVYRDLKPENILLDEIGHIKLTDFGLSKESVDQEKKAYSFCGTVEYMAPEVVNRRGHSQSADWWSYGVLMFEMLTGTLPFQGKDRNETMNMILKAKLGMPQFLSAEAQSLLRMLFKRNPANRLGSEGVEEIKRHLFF
Text: as §2

Alk3/BMPR1A = target: T12, Alk3/BMPR1A (Homo sapiens, UniProt P36894); assay: as above; details: absence of ATP, three-point titration
T12 construct: purchased DiscoverX
T12 sequence (P36894 24-532): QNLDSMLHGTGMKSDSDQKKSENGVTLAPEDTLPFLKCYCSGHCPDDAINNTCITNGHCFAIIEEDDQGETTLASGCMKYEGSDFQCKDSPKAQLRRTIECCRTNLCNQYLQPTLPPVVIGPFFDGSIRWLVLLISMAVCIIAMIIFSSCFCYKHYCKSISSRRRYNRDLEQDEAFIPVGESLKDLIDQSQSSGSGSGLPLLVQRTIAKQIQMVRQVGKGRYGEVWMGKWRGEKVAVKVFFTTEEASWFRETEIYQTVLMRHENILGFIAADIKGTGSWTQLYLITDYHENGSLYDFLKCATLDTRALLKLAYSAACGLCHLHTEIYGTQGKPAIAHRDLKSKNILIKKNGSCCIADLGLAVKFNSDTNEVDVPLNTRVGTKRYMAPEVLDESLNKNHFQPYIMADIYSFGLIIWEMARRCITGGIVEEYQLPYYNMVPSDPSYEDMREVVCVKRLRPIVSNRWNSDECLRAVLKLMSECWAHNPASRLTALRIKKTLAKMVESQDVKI
Text: as §2

Alk4/ACVR1B = target: T13, Alk4/ACVR1B (Homo sapiens, UniProt P36896); assay: as above; details: absence of ATP, three-point titration
T13 construct: purchased DiscoverX
T13 sequence (P36896 24-505): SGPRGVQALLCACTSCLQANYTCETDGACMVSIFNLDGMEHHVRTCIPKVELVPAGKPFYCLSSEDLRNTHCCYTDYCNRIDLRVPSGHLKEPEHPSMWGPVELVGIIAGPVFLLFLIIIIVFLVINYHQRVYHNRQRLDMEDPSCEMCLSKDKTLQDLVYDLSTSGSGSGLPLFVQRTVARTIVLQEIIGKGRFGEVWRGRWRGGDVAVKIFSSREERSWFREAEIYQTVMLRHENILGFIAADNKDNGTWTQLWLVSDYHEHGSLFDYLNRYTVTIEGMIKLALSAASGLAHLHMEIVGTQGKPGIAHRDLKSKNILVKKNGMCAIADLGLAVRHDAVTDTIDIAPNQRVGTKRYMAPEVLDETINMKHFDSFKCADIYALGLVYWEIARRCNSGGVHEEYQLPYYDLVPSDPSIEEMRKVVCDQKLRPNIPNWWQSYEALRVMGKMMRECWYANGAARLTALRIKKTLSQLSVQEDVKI
Text: as §2

TNIK = target: T14, TNIK (Homo sapiens, UniProt Q9UKE5); assay: as above; details: absence of ATP, three-point titration
T14 construct: purchased DiscoverX
Text: as §2

Alk1/ACVRL1 = target: T15, Alk1/ACVRL1 (Homo sapiens, UniProt P37023); assay: as above; details: absence of ATP, three-point titration
T15 construct: purchased DiscoverX
Text: as §2

BMPR2 = target: T16, BMPR2 (Homo sapiens, UniProt Q13873); assay: as above; details: absence of ATP, three-point titration
T16 construct: purchased DiscoverX
T16 sequence (Q13873 27-1038): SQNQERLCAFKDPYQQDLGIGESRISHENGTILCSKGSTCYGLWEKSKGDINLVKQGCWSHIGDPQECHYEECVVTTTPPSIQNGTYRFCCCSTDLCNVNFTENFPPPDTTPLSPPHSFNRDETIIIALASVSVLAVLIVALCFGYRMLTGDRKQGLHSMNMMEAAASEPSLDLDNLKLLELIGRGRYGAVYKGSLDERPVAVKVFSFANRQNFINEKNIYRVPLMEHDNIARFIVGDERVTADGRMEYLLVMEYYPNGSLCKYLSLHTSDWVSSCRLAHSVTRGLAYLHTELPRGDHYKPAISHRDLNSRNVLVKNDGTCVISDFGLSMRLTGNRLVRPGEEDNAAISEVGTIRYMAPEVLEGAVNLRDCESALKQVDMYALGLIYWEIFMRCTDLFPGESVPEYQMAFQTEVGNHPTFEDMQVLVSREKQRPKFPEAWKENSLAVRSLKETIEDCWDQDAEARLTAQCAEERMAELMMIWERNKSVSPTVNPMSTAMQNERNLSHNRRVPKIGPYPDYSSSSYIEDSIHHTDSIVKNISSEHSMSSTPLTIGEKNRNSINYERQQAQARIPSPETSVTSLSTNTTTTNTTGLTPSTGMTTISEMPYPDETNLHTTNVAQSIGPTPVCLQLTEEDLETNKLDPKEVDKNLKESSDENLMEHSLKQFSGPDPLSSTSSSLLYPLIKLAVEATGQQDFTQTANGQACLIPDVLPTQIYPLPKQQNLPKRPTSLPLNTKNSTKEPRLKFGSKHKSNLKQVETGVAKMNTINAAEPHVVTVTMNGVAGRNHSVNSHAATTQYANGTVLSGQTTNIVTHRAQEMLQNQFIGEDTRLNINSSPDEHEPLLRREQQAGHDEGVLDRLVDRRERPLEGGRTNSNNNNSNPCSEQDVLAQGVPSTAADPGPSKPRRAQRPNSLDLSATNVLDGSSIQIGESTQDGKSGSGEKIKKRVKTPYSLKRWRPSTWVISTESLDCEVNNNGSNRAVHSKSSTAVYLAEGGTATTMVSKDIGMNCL
Text: as §2

CSNK1E1 = target: T17, CSNK1E1 (Homo sapiens, UniProt P49674); assay: as above; details: absence of ATP, three-point titration
T17 construct: purchased DiscoverX
Text: as §2

RIPK2 = target: T18, RIPK2 (Homo sapiens, UniProt O43353); assay: as above; details: absence of ATP, three-point titration
T18 construct: purchased DiscoverX
Text: as §2

pSMAD in 4T1-LP cells = assay: TGFβ1-induced pSMAD inhibition in 4T1-LP cells (ELISA)
Protocol: Next, the samples were homogenized for 15 seconds using Bioruptor® UCD-200 by Diagenode at medium power.
Total and pSMAD2/3 levels were assessed independently on two separate ELISA plates. […] To the pSMAD ELISA plate, 100 μL per well of lysate (ranging from 0.04-0.1 mg total protein) was added to the appropriate wells. To the total SMAD ELISA plate, 10% of the total protein that was added to the pSMAD, was added to the appropriate wells (0.004-0.01 mg protein final). A standard curve was also added to both ELISA plates (p- and tSMAD plates) using recombinant HIS-pSMAD2 protein (Eli Lilly and Company). Plates were incubated overnight then washed four times with wash buffer. […] Following one hour of incubation, plates were washed and developed using 3, 3’, 5, 5’-tetramethylbenzidine substrate (TMB; Surmodics/BioFX #TMBW-0100-01) and absorbance (OD) was read at 450 nm on a plate reader.
Percent inhibition of normalized pSMAD2 levels was calculated by first determining the ratio of tSMAD to pSMAD values for the vehicle group. […]

[6] = system: CEREP diversity panel, 65 targets; assay: CEREP diversity panel; details: at 10 μM, duplicate; data not shown
in vivo = details: female, BALB/c, mouse, plasma, po, 25 mg/kg
Protocol: (§3) For in vivo measurement of tumor cell pSMAD activity, tumors were harvested from mice at the indicated time points post-treatment, snap frozen in liquid nitrogen, then pulverized in lysis buffer [EDTA 5 mM, EGTA 5 mM, sodium pyrophosphate 30 mM, sodium chloride 6.7 mM, sodium fluoride 50 mM, and 1% triton in water, pH 7.4 with protease and phosphatase inhibitors (Sigma, p8340, p5726, p0044) and sodium orthovanadate 2.5 mM]. Protein concentration was estimated with DC protein assay kit (BioRad).
(§4) Percent inhibition of normalized pSMAD2 levels was calculated by first determining the ratio of tSMAD to pSMAD values for the vehicle group. […] Percent inhibition for compound treated groups was determined relative to the minimum pSMAD inhibition of the vehicle group using the formula: [(100- (normalized pSMAD in the experimental treatment group/normalized pSMAD in the vehicle treated group)]. IC50 of pSMAD inhibition was calculated for the data using non-linear regression to fit the standard four parameter logistic model using GraphPad Prism 6.
(§5) Female athymic nu/nu mice or immune competent syngenic BALB/c mice (Charles River or Taconic Farms, respectively, 22 to 28 grams) were maintained in microisolator cages, received food and water ad libitum, and were quarantined for 1 week before experimental manipulation. Sub-confluent Calu6 human non-small cell lung cancer (NSCLC) cells were injected subcutaneously in the flank of nude mice (1x 10^7cells/per animal) in 0.2 mL of culture medium mixed with Matrigel (BD Biosciences, 1:1 v/v). EMT6-LM2 murine triple negative breast cancer tumor cells (5 × 10^5 cells/per animal in the absence of matrigel) were implanted on the flank of BALB/c mice. EMT6-LM2 cells were generated from parental EMT6 cells which were passaged twice from spontaneous lung metastases (LM) following subcutaneous growth. When the tumor volume reached ~250 mm^3, mice were randomized and separated into treatment groups.
(§6) Tumors and plasma were collected 2 hours post dosage for analysis of pSMAD and compound levels.
(§7) Tumors and plasma were collected at the indicated time points (0.5, 1, 1.5, 2, 4, 8, and 16 hours) for analysis of pSMAD and compound levels.
(§8) Percent target inhibition was calculated as described above then was modeled as a function of either dose or plasma concentration.

pSMAD in PBMC = assay: 13762 rat tumor model, ex vivo stimulated PBMC pSMAD; assay type: in vivo, Fischer 344 rats; details: Table 4, read-out: IC50 of pSMAD (%CV)
Protocol: as §1
Ex vivo stimulation and assessment of target modulation in PBMCs have been described in detail previously. Briefly, whole blood (2 to 3 mL) was collected by cardiac puncture from Fischer 344 rats and transferred to BD Vacutainer CPT sodium citrate tubes. PBMCs isolated from whole blood were stimulated with TGFβ1 at a final concentration of 100 pM at 37°C for one hour. Cells were washed with cold PBS and lysed in 50-100 μL of lysis buffer, and pSMAD and tSMAD levels were assessed by immunoblot assay as described above.
For correlation of pSMAD modulation in 13762 rat mammary carcinoma tumors and PBMCs, data were normalized using an analysis of co-variance of log pSMAD versus log tSMAD and treatment group. The slope (b) from this analysis was used to normalize the pSMAD values using pSMAD/(tSMAD)^b. Percent inhibition was calculated by the following formula: 100-(y/x)*100 where y = normalized pSMAD value and x = mean normalized pSMAD in the vehicle control. […]

Chain of TGFβRII (P37173 23-567): as the sequence (P37173 23-567) above
Protocol for pSMAD in EMT6-LM2 tumors: as §3, §4, §5, §6, §7, §8

In the case of `Cc1cccc(-c2nn3c(c2-c2ccnc4ccc(C(N)=O)cc24)CCC3)n1.O` [galunisertib, 4-[2-(6-methylpyridin-2-yl)-5,6-dihydro-4H-pyrrolo[1,2-b]pyrazol-3-yl]quinoline-6-carboxamide monohydrate], the IC50 (TGFβRII) is given as 2000 nM, the “clinical outcome versus gemcitabine, phase II” value [1] is given as “superiority over gemcitabine” and the TED90 ([2]; oral, data not shown) is given as 75 mg/kg. For the same compound, the “target inhibition in vivo over 12 hours” value ([2]; single oral dose with an exposure of […]-5 μM) was ≥ 20%, the IC50 (pSMAD in NIH3T3 cells) was 64 nM and the IC50 [3] was 719 nM. For the same compound, the “adverse effects at high doses” value [4] was “associated with adverse effects”, the IC50 [5] was 221 nM and the IC50 (Alk6/BMPR1) was 470 nM. For the same compound, the IC50 (Alk6/BMPR1; listed as Galunisertib) was 471 nM, the IC50 (Braf) was 500 nM and the IC50 (NLK) was 910 nM. The IC50 (Alk2/ACVR1) was > 20000 nM, the IC50 (ACVR2B) was 690 nM and 694 nM and the IC50 (TGFβR2) was 210 nM. It also gave an IC50 (TGFβR2; listed as Galunisertib) of 208 nM, an IC50 (ZAK) of 860 nM and an IC50 (Abl1) of 860 nM. The IC50 (MINK) was 190 nM, the IC50 (GAK) was 310 nM and the IC50 (ACVR2A) was > 20000 nM. It also gave an IC50 (RSK4) of 720 nM, an IC50 (Alk3/BMPR1A) of 16800 nM and an IC50 (Alk4/ACVR1B) of 80 nM. The IC50 (Alk4/ACVR1B; listed as Galunisertib) was 77.7 nM, the IC50 (TNIK) was 510 nM and the IC50 (Alk1/ACVRL1) was > 20000 nM. The IC50 (BMPR2) was > 60000 nM, the IC50 (CSNK1E1) was 400 nM and the IC50 (RIPK2) was 220 nM. The IC50 (pSMAD in 4T1-LP cells; Mus musculus, read-out: IC50, pSMAD activity, 4T1-LP, TGFβ1 10 ng/ml, ELISA) was 1760 nM, the IC50 (pSMAD in 4T1-LP cells; read-out: IC50, pSMAD activity, 4T1-LP, TGFβ1 10 ng/ml, ELISA) was 1770 nM and the “pSMAD inhibition at maximum plasma exposure” value (pSMAD in EMT6-LM2 tumors; EMT6-LM2, at 30 minutes) was ~ 70%. For the same compound, the “TED50, total effective dose to inhibit 50% pSMAD” value (pSMAD in EMT6-LM2 tumors; EMT6-LM2, single oral dose, tumors 2 hours post dosage) was 19.7 mg/kg, the maximum plasma exposure (pSMAD in EMT6-LM2 tumors; EMT6-LM2 time course, single oral dose) was “up to 6 μM” and the “inhibition against all 65 targets” value [6] was < 25%. It also gave a Tmax (in vivo) of 30 min and an IC50 (pSMAD in PBMC) of 1960 nM.
